Structures can show the parent of a compound that is named as a salt. Where two headings read alike, the source gives them in different places.
Key:
FGFR4 kinase [1] = molecular target: T1, FGFR4 kinase (Homo sapiens (Human), UniProt P22455); test: biochemical
FGFR4 kinase [2] = molecular target: T1, FGFR4 kinase
[3] = system: Hepatoma cell Hep3B (high expression of FGFR4 and FGF19); test: Hepatoma cell proliferation inhibition experiment (MTS method); type: cell-based; conditions: for IC50: Homo sapiens, Hep3B, read-out: Hep3B(IC50 μM)
Excerpt: In this experiment, the MTS method was used to test the inhibitory effect of the compounds on the proliferation of Hepatoma cell Hep3B (high expression of FGFR4 and FGF19), and the half inhibitory concentration IC50 of the compounds to Hep3B was obtained. The Hep3B cell line was purchased from ATCC, and the complete culture medium of the Hep3B cell line was MEM+10% FBS+1% PS. MEM cell culture medium, fetal bovine serum, and trypsin were purchased from Gibco, cell culture flasks were purchased from Greiner, and disposable Cell Counting Plate and Taittinger Blue Solution were purchased from Bio-Rad.
(1) 100 μl Hepatoma cell Hep3B suspension was seeded in a 96-well cell culture plate, and the density of each well was 2.0×10^4 cells/ml.
(3) A mixture of MTS (3-(4,5-dimethylthiazol-2-yl)-5-(3-carboxymethoxyphenyl)-2-(4-sulfophenyl)-2H-tetrazolium)/PMS (phenazine methosulfate) was added into each well for coloration, and MTS/PMS in the mixture was at a ratio of 20:1 (ml:ml). 30 μl of the mixture was added into each well of the culture plate above mentioned in step (2), then the culture plate was incubated for 3 h in the incubator.
(5) The inhibition rate was calculated by the […];
(6) According to the inhibition rate of the different concentrations, the IC50 values of the compounds were obtained by curve fitting.

PK analysis of rats = type: in vivo; conditions: p.o. (10 mg/kg); for AUC(0-t) / Cmax: rat, plasma, po; for AUC(0-t): read-out: Curve area AUC0-24 h; for Cmax: read-out: Drug concentration in blood Cmax
Procedure: In the present invention, the pharmacokinetics experiment of the compounds in rats was performed using the SD rats (Vitolihua).
(1) Mode of administration: single gavage administration and intravenous injection administration.
(2) Dosage: 10 mg/kg in the gavage administration, 3 mg/kg in the intravenous injection administration.
Gavage administration: before administration, 15 min, 30 min, 1 h, 2 h, 4 h, 6 h, 8 h, 24 h; […]
(4) Sample processing: 200 μL of orbital blood was collected at each sampling time point. After anticoagulation with heparin, the blood was centrifuged at 5500 rpm for 10 min, and 60 μL of the supernatant was taken and put into the refrigerator at −80° C. for waiting for testing.
Samples obtained after administration of Compound 1 were tested using 4000 LC-MS/MS analyzer, wherein, the chromatographic separation conditions for testing were:
Samples obtained after administration of Compound 7 were tested using 4000 LC-MS/MS analyzer, wherein, the chromatographic separation conditions for testing were:
Samples obtained after administration of Compound 16 were tested using 4000 LC-MS/MS analyzer, wherein, the chromatographic separation conditions for testing were: […]

T1 sequence (P22455 22-802): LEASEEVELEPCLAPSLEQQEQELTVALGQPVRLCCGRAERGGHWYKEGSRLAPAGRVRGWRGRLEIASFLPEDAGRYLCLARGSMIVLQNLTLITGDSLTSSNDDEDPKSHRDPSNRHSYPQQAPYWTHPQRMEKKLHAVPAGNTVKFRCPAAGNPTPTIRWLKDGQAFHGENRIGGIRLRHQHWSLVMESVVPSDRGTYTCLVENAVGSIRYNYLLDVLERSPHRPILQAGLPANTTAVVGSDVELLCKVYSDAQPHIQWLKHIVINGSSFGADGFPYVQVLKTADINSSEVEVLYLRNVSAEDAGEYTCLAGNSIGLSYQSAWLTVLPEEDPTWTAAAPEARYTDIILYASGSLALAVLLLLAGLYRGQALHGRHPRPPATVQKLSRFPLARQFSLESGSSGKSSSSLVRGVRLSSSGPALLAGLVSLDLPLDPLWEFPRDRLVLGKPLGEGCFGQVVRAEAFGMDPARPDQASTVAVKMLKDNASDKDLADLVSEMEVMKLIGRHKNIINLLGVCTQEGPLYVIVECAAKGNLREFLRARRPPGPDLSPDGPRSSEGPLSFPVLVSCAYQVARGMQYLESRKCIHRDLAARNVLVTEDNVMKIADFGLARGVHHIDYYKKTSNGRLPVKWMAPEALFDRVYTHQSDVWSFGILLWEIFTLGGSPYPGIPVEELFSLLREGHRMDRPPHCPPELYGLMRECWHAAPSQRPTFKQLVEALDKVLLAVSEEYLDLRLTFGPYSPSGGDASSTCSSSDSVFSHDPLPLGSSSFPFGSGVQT

| SMILES | IC50 (FGFR4 kinase [1]) | IC50 ([3]; 120 h incubation) | further results |
| --- | --- | --- | --- |
| C[C@H](C[S+](C)[O-])Nc1cc(NC(=O)N2CCCc3cc(CN4CCN(C)CC4=O)c(C=O)nc32)ncc1C#N (stereo partly drawn) [Compound 69, N-(5-cyano-4-(((2R)-1-(methylsulfinyl)propan-2-yl)amino)pyridin-2-yl)-7-formyl-6-((4-methyl-2-oxopiperazin-1-yl)methyl)-3,4-dihydro-1,8-naphthyridine-1(2H)-carboxamide] | 2.1 nM | 0.067 µM | inhibitory effect on FGFR4 compared with the reference compound (FGFR4 kinase [2]): better inhibitory effect on FGFR4 than the reference compound |
| C[C@H](CS(C)(=O)=O)Nc1cc(NC(=O)N2CCCc3cc(CN4CCN(C)CC4=O)c(C=O)nc32)ncc1C#N [Compound 83, N-(5-cyano-4-(((2R)-1-(methyl-sulfonyl)propan-2-yl)amino)pyridin-2-yl)-7-formyl-6-((4-methyl-2-oxopiperazin-1-yl)methyl)-3,4-dihydro-1,8-naphthyridine-1(2H)-carboxamide] | 2.1 nM | 0.068 µM | inhibitory effect on FGFR4 compared with the reference compound (FGFR4 kinase [2]): better inhibitory effect on FGFR4 than the reference compound |
| CSCCOc1cc(NC(=O)N2CCCc3cc(CN4CCN(C)CC4=O)c(C=O)nc32)ncc1C#N [Compound 2] |  | 0.028 µM |  |
| CSC[C@H](C)Nc1cc(NC(=O)N2CCCc3cc(CN4CCN(C)CC4=O)c(C=O)nc32)ncc1C#N [Compound 11, (S)-N-(5-cyano-4-((1-(methylthio)propan-2-yl)amino)pyridin-2-yl)-7-formyl-6-((4-methyl-2-oxopiperazin-1-yl)methyl)-3,4-dihydro-1,8-naphthyridine-1(2H)-carboxamide] |  | 0.035 µM |  |
| CSCCNc1cc(NC(=O)N2CCCc3cc(CN(C)C(=O)[C@H]4CCCO4)c(C=O)nc32)ncc1C#N [Compound 74, (R)-N-(5-cyano-4-((2-(methylthio)ethyl)amino)pyridin-2-yl)-7-formyl-6-((N-methyltetrahydrofuran-2-carboxamido)methyl)-3,4-dihydro-1,8-naphthyridine-1(2H)-carboxamide hydrochloride] |  | 0.06 µM |  |
| CN1CCN(Cc2cc3c(nc2C=O)N(C(=O)Nc2cc(NCc4ccsn4)c(C#N)cn2)CCC3)C(=O)C1 [Compound 68, N-(5-Cyano-4-((isothiazol-3-yl-methyl)amino)pyridin-2-yl)-7-formyl-6-((4-methyl-2-oxopiperazin-1-yl)methyl)-3-1,4-dihydro-1,8-naphthyridine-1(2H)-carboxamide] |  | 0.026 µM |  |
| CN1CCN(Cc2cc3c(nc2C=O)N(C(=O)Nc2cc(NC4CCSCC4)c(C#N)cn2)CCC3)C(=O)C1 [Compound 20, N-(5-cyano-4-((tetrahydro-2H-thiopyran-4-yl)amino)pyridin-2-yl)-7-formyl-6-((4-methyl-2-oxopiperazin-1-yl)methyl)-3,4-dihydro-1,8-naphthyridine-1(2H)-carboxamide] | 4.4 nM | 0.021 µM | inhibitory effect on Hepatoma cell Hep3B compared with the reference compound [3]: better inhibitory effect; exposure amount AUC0-24 h and maximum drug concentration in blood Cmax compared with the reference compound (PK analysis of rats; SD rats): significantly higher than the reference compound; AUC(0-t) (PK analysis of rats; SD rats): 2000 ng·h/mL; Cmax (PK analysis of rats; SD rats): 514 ng/mL |
| CO[C@@H]1CCN(Cc2cc3c(nc2C=O)N(C(=O)Nc2cc(N[C@H](C)CSC)c(C#N)cn2)CCC3)C1=O [Compound 9, N-(5-cyano-4-(((R)-1-(methylthio)propan-2-yl)amino)pyridin-2-yl)-7-formyl-6-(((R)-3-methoxy-2-oxopyrrolidin-1-yl)methyl)-3,4-dihydro-1,8-naphthyridine-1(2H)-carboxamide] |  | 0.009 µM | inhibitory effect on Hepatoma cell Hep3B compared with the reference compound [3]: better inhibitory effect |
| CCSCCNc1cc(NC(=O)N2CCCc3cc(CN4CCN(C)CC4=O)c(C=O)nc32)ncc1C#N [Compound 71, N-(5-cyano-44 (2-(ethylthio)ethypamino)pyridin-2-yl)-7-formyl-64 (4-methyl-2-oxopiperazin-1-yl)methyl)-3,4-dihydro-1,8-naphthyridine-1 (2H)-carboxamide hydrochloride] | 2.4 nM |  | IC50 ([3]; 120 h): 0.049 µM; exposure amount AUC0-24 h and maximum drug concentration in blood Cmax compared with the reference compound (PK analysis of rats; SD rats): significantly higher than the reference compound; AUC(0-t) (PK analysis of rats; Sprague-Dawley (SD)): 1950 ng·h/mL; Cmax (PK analysis of rats; Sprague-Dawley (SD)): 657 ng/mL |
| CC(Nc1cc(NC(=O)N2CCCc3cc(CN4CCN(C)CC4=O)c(C=O)nc32)ncc1C#N)c1nccs1 (stereo not drawn) [Compound 60, N-(5-cyano-4-((1-(thiazol-2-yl)ethyl)amino)pyridin-2-yl)-7-formyl-6-((4-methyl-2-oxopiperazin-1-yl)methyl)-3,4-dihydro-1,8-naphthyridine-1(2H)-carboxamide] | 3 nM |  |  |
| CSCC(C)Nc1cc(NC(=O)N2CCCc3cc(CN4CCN(C)CC4=O)c(C=O)nc32)ncc1C#N (stereo not drawn) [Compound 82, N-(5-cyano-4-((1-(methyl-thio)propan-2-yl)amino)pyridin-2-yl)-7-formyl-6-((4-methyl-2-oxopiperazin-1-yl)methyl)-3,4-dihydro-1,8-naphthyridine-1(2H)-carboxamide] |  | 0.02 µM | inhibitory effect on Hepatoma cell Hep3B compared with the reference compound [3]: better inhibitory effect |
| CSCCNc1cc(NC(=O)N2CCCc3cc(CN4CCN(C)CC4=O)c(C=O)nc32)ncc1C#N [Compound 1] | 1.5 nM | 0.023 µM | exposure amount AUC0-24 h and maximum drug concentration in blood Cmax compared with the reference compound (PK analysis of rats; SD rats): significantly higher than the reference compound; AUC(0-t) (PK analysis of rats; Sprague-Dawley (SD)): 2370 ng·h/mL; Cmax (PK analysis of rats; Sprague-Dawley (SD)): 833 ng/mL |
| Cc1ccc(CNc2cc(NC(=O)N3CCCc4cc(CN5CCN(C)CC5=O)c(C=O)nc43)ncc2C#N)s1 [Compound 58, N-(5-cyano-4-(((5-methyl-thiophen-2-yl)methyl)amino)pyridin-2-yl)-7-formyl-6-((4-methyl-2-oxopiperazin-1-yl)methyl)-3,4-dihydro-1,8-naphthyridine-1(2H)-carboxamide] | 2.1 nM |  | inhibitory effect on FGFR4 compared with the reference compound (FGFR4 kinase [2]): better inhibitory effect on FGFR4 than the reference compound |
| CN1CCN(Cc2cc3c(nc2C=O)N(C(=O)Nc2cc(NCc4cscn4)c(C#N)cn2)CCC3)C(=O)C1 [Compound 59, N-(5-Cyano-4-((thiazol-4-yl-methyl)amino)pyridin-2-yl)-7-formyl-6-((4-methyl-2-oxopiperazin-1-yl)methyl)-3,4-dihydro-1,8-naphthyridine-1(2H)-carboxamide] | 2.1 nM |  | inhibitory effect on FGFR4 compared with the reference compound (FGFR4 kinase [2]): better inhibitory effect on FGFR4 than the reference compound |
| CN1CCN(Cc2cc3c(nc2C=O)N(C(=O)Nc2cc(NCc4cncs4)c(C#N)cn2)CCC3)C(=O)C1 [Compound 55, N-(5-cyano-4-((thiazol-5-yl-methyl)amino)pyridin-2-yl)-7-formyl-6-((4-methyl-2-oxopiperazin-1-yl)methyl)-3,4-dihydro-1,8-naphthyridine-1(2H)-carboxamide] | 3 nM |  |  |
| CSCCNc1cc(NC(=O)N2CCCc3cc(CN4CCCCOC4=O)c(C=O)nc32)ncc1C#N [Compound 16, N-(5-cyano-4-((2-(methylthio)ethyl)amino)pyridin-2-yl)-7-formyl-6-((2-oxo-1,3-oxazepan-3-yl)methyl)-3,4-dihydro-1,8-naphthyridine-1(2H)-carboxamide] |  | 0.029 µM | exposure amount AUC0-24 h and maximum drug concentration in blood Cmax compared with the reference compound (PK analysis of rats; SD rats): significantly higher than the reference compound; AUC(0-t) (PK analysis of rats; SD rats): 3670 ng·h/mL; Cmax (PK analysis of rats; SD rats): 936 ng/mL |
| CO[C@@H]1CCN(Cc2cc3c(nc2C=O)N(C(=O)Nc2cc(NCCSC)c(C#N)cn2)CCC3)C1=O [Compound 8, (R)-N-(5-cyano-4-((2-(methylthio)ethyl)amino)pyridin-2-yl)-7-formyl-6-((3-methoxy-2-oxopyrrolidin-1-yl)methyl)-3,4-dihydro-1,8-naphthyridine-1(2H)-carboxamide] |  | 0.008 µM | inhibitory effect on Hepatoma cell Hep3B compared with the reference compound [3]: better inhibitory effect |

Reference: patent US11136320B2, “Fused ring derivative used as FGFR4 inhibitor” (JACOBIO PHARMACEUTICALS CO., LTD., priority 2019, dated 2021)
